From ChEMBL document CHEMBL3507680, “University of Dundee, Gates Library screen for HepG2 cell viability”

Assay: Human HepG2 cell viability assay in 384 well format
Assay type: toxicity, cell-based
Set-up: dose 125 nL, time 70.5 hour; concentration not given beside the values
Settings: HepG2 cells, read-out: Inhibition

| SMILES | cytotoxicity at 70.5 h |
| --- | --- |
| Nc1ccc(-c2cnc(C3CCCN3)cn2)cn1 (configuration not stated) | -8.2% |
| CCOCC1CN(c2ncc(F)cn2)Cc2cn(CC)nc21 (configuration not stated) | -11.1% |
| CC(O)CCN(C)C(=O)Nc1cc(F)cc(Br)c1 (configuration not stated) | 1.72% |
| Cc1nc2cc(O)nn2c(C)c1CCC(=O)NCc1cc(Br)cs1 | -13.2% |
| CS(=O)(=O)N1C[C@@H](Oc2ccccn2)[C@H]2OCCC[C@H]21 | -2.17% |
| COc1ccc(-n2cnnc2SCCC#N)cn1 | -4.7% |
| CCOc1ccccc1OC1CCN(C(=O)c2c[nH]nn2)CC1 | -0.281% |
| Cc1ccc(CCC(=O)N2CCCC(c3cc(C(N)=O)[nH]n3)C2)cc1 (configuration not stated) | 0.115% |
| COCCC(=O)N1CCc2nc(N3CCOCC3)nc(NC(C)C)c2C1 | -17% |
| Cc1cc(-c2cnn(C)c2)ccc1OCC(N)=O | -2.62% |
| O=C(O)c1ccccc1-n1cc(CN2CCOC(c3cc[nH]n3)C2)cn1 (configuration not stated) | -12.9% |
| CN(Cc1ccc2c(c1)OCO2)Cc1nc2c(cnn2C)c(=O)[nH]1 | 1.92% |
| Cc1cc(C(=O)NC(COCC(C)C)c2ccco2)no1 (configuration not stated) | -1.3% |
| CCS(=O)(=O)N1CC[C@H]2CO[C@H](CN(C)C)[C@H]2C1 | 9.44% |
| Cc1cc(C2CCCN(CCC(=O)N3CCc4ccccc43)C2)n[nH]1 (configuration not stated) | -4.23% |
| CCOCc1ncn2c1CN(C(=O)c1ccoc1)CC2 | -12.2% |
| CC1c2ncc(Cn3cncn3)n2CCN1C(=O)c1cscn1 (configuration not stated) | 20.8% |
| CC[C@H]1CN(C(=O)C(C)(C)C)CC[C@H]1CC(=O)O | 7.7% |
| Cn1c(=O)oc2cc(Nc3nccnc3C#N)ccc21 | -2.2% |
| CNC(=O)[C@@]12CCO[C@@H]1CCN(Cc1ccc3c(c1)OCO3)C2 | 9.37% |
| O=C(c1cnoc1)N1CCC[C@]2(C[C@H](Oc3ncccc3F)CO2)C1 | -3.55% |
| CN(Cc1cc(F)ccc1F)CC(C)(CO)CO | -5.92% |
| CC(=O)N1Cc2nccn2CC(CNC(=O)c2ccnnc2)C1 (configuration not stated) | 9.01% |

| SMILES | cytotoxicity at 70.5 h |
| --- | --- |
| CN(Cc1cccc(F)c1)C(=O)CN1CCCCC1Cn1cncn1 (configuration not stated) | -9.08% |
| CCOCC1CN(C(=O)N(C)C)Cc2nn(C)cc21 (configuration not stated) | -5.53% |
| O=C(NC1CCCN(c2ccccc2Cl)C1)c1nc(=O)[nH][nH]1 (configuration not stated) | 25.3% |
| CCc1c(NCc2cccnc2)cnn1CC(C)C | -5.5% |
| Cc1nnc(CCNC(=O)c2coc(CN3CCOCC3)c2)s1 | 1.37% |
| CCOC[C@@H]1CC[C@H]2[C@H](CCN2Cc2c(C)noc2C)O1 | -0.0549% |
| Cn1nc(C2CCCN(Cc3cc(F)cc(F)c3)C2)c2nccnc21 (configuration not stated) | -1.82% |
| O=C(C1CCCc2[nH]ncc21)N1CCCC1 (configuration not stated) | -4.89% |
| Cc1cnc(N2CCC3(CC(=O)N(Cc4csc(C)n4)C3)C2)nc1 (configuration not stated) | -11.1% |
| Cc1cccnc1CNCC1(O)CCCN(Cc2ccc(F)cc2)C1=O (configuration not stated) | 23.1% |
| O=C(NCCCN1CCCCC1)c1n[nH]c(=O)c2ccccc12 | 25% |
| CC(Cn1cccn1)C(=O)N1CCCN(Cc2cscn2)CC1 (configuration not stated) | -0.68% |
| Cc1ccc(-c2ccc(Cl)nn2)cc1S(=O)(=O)N1CCOCC1 | -5.38% |
| Cc1ccc(N2C[C@@H]3CN(Cc4csc(C)n4)CCO[C@@H]3C2)nn1 | -2.48% |
| Cc1ccccc1OC1CCN(C(=O)c2c[nH]c(=O)[nH]c2=O)CC1 | -0.618% |
| COc1ccc(N(C(=O)c2ccc(C)nc2)C(C)C)cc1F | 15.8% |
| CCN(Cc1noc(C)n1)C(=O)C(c1ccccc1C)N(C)C (configuration not stated) | -6.06% |
| CC(=O)N1CCC(c2cccc(Oc3ccccc3)n2)CC1 | -3.81% |
| CCc1cnc(NC(=O)NC2CCN(C3CCCC3)CC2)s1 | -7.06% |
| Cc1ccc(-c2ccnc(NC(C)c3ncc[nH]3)n2)c(C)n1 (configuration not stated) | -10.5% |
| NC(=O)C1CCN(Cc2ccc(S(=O)(=O)N3CCCC3)o2)CC1 | -3.5% |
| O=C(NC(CC(F)(F)F)c1ccc(Cl)cc1)c1nc(=O)[nH][nH]1 (configuration not stated) | 0.759% |
| Cc1nc(C)n(C2CCCN(C(=O)c3ccc(NC4CC4)nc3)C2)n1 (configuration not stated) | -6.49% |

| SMILES | cytotoxicity at 70.5 h |
| --- | --- |
| CCn1c(C)nnc1CN(C)C1CCN(CCCOC)C1 (configuration not stated) | 3.25% |
| Cc1cc(CN2CCC3(CC2)COC(COCC2CC2)C3)no1 (configuration not stated) | -9.77% |
| CSc1ncc(C(=O)N2C[C@@H](NC(C)=O)[C@H](c3ccc(C)cc3)C2)cn1 | -5.41% |
| Cc1nc(N2CCCC2)nc(N2CCC(O)(C(=O)O)CC2)c1C | 23.8% |
| CSc1nccn1-c1cccc(C(=O)NCCCN2CCOCC2)c1 | 1.7% |
| CN(CC(=O)NCc1cc2ccccc2o1)S(C)(=O)=O | -0.935% |
| c1cncc(O[C@H]2CC[C@H]3[C@H]2OCCN3C2CCCC2)c1 | -1.6% |
| CC1CCCN(S(=O)(=O)NCCN/C(O)=C2/N=CC=CC2=O)C1 (configuration not stated) | 0.429% |
| CC(=O)NCC(=O)N1CCn2cc(CN(C)Cc3ccco3)nc2C1 | 2.22% |
| CN(C)c1nc2c(c(N3CCc4c(c(CO)nn4C)C3)n1)CCNC2 | 46.5% |
| CNC(=O)CS(=O)(=O)Cc1coc(-c2ccc(F)cc2)n1 | -9.1% |
| CCc1ccsc1C(=O)N1CCN(CCN2C(=O)CCC2=O)CC1 | -3.69% |
| CN(C)Cc1nc(C(C)(C)NC(=O)C2CC(=O)N(CC3CC3)C2)no1 (configuration not stated) | 19.5% |
| COc1cccc(CN2CC[C@H](c3nnc(-c4ccco4)o3)C2)c1 | 10.6% |
| CN(C)CCNC(=O)c1sc2ccccc2c1C1CCC(CN)CC1 (configuration not stated) | 8.65% |
| Fc1cccc(CN2CCC[C@@H](Cn3nnc(-c4ccccn4)n3)C2)c1 | -5.77% |
| CCOC(=O)C1(O)CCN(C(=O)Nc2cccc(CC)c2)CC1 | -0.303% |
| Cc1ccc(-c2nnc(CN3CCOC(Cn4cncn4)C3)o2)cc1 (configuration not stated) | -5.3% |
| CN(C)CCN(C)C(=O)Nc1cc(F)cc(N2CCCC2)c1 | -6.32% |
| Cc1nc(N2CCN(C)CC2)ncc1C(=O)N1CCCCC1 | -0.181% |
| CCOC(=O)CNC(=O)N1CCC(OC)c2ccccc2N(C)C(=O)C1 (configuration not stated) | -6.05% |
| CC(C)c1nnc2n1CCN(Cc1csc(CC(=O)N(C)C)n1)C2 | 49.9% |
| CN(CCC#N)C(=O)C(C)(C)Oc1ccc(C(N)=O)cc1 | 20.4% |

| SMILES | cytotoxicity at 70.5 h |
| --- | --- |
| c1cc(CN2CCN3C[C@H](Oc4cncnc4)C[C@H]3C2)ccn1 | -5.1% |
| COc1c(F)cc(F)cc1-c1nc2c([nH]1)CCNC2 | 14.9% |
| COCCN1CCN(c2cccc(C)n2)Cc2ccc(C)nc21 | 2.66% |
| Cn1cc(S(=O)(=O)N(Cc2ccc(F)cc2F)C2CC2)cc1C(N)=O | -7.08% |
| CCOCCN1CCN(CC(O)c2ccc(C(F)(F)F)cc2)CC1 (configuration not stated) | -0.521% |
| CCOCc1nc2c(c(NC(CC)c3ccncc3)n1)CCNCC2 (configuration not stated) | 1.72% |
| Cn1ccnc1CN1CCN(Cc2ccc(C#N)cc2)CC1 | -2.96% |
| Cc1cc(Cn2c(=O)c3c(C(F)(F)F)cc(C)nc3n2C)on1 | -3.01% |
| CNc1ncc2c(n1)CN(CCc1ccc(C)cc1)C2=O | -3.63% |
| N#Cc1cccc(N2CCC(CO)(CCCc3ccccc3)CC2)n1 | -4.41% |
| COC(=O)c1ccc(N2CCN(CCS(C)(=O)=O)C(C)C2)cc1 (configuration not stated) | -3.48% |
| COc1ccc(CN2C[C@H]3CC[C@](O)(c4ccc(C)cn4)[C@H]3C2)c(F)c1 | -0.817% |
| Cc1cccc(C2(NCCCS(C)(=O)=O)CCCC2)c1 | -6.96% |
| Cc1cc(C(=O)N2C[C@@H]3COC[C@]3(COCc3cccnc3)C2)no1 | -12% |
| O=C(O)c1ccccc1CN1CCOC(CCc2ccncn2)C1 (configuration not stated) | -4.46% |
| CCS(=O)(=O)N1CCC2(CC(=O)N(c3cnn(C)c3)C2)C1 (configuration not stated) | -2.5% |
| CC(Cc1c(F)cccc1F)NC(=O)CN(CC(N)=O)C(C)C (configuration not stated) | -2.04% |
| Cc1cc(C)c2[nH]c(C(=O)NCCN3CCOC3=O)c(C)c2c1 | 1.29% |
| CCC(C)N(Cc1cccnc1)C(=O)c1ccc(F)c(O)c1 (configuration not stated) | 12.9% |
| Cc1ocnc1C(=O)N1CC[C@@]2(O)CCN(C(=O)N3CCCC3)C[C@H]2C1 | -4.39% |
| CC(C)c1cc(NCC2(Cn3cccn3)CC2)nc(N)n1 | -0.462% |
| CCOC(=O)N1CCC2(CC1)N=C(CCC(C)C)NC2=O | -1.58% |
| CNc1ncc(CN(C)CCN2CCCCC2)cn1 | 36.6% |

| SMILES | cytotoxicity at 70.5 h |
| --- | --- |
| Cc1cccc(NC2CCN(C(=O)Nc3cc(F)ccc3F)CC2)n1 | 0.351% |
| CCNC(=O)Cc1c(C)nc2c(c1C)c(=O)[nH]n2C | -5.26% |
| O=C(NCc1ccccn1)c1cnc(C2CCCN2)cn1 (configuration not stated) | -4.69% |
| Cc1cc(C)nc(N2CCC(C(=O)Nc3n[nH]c(CC(C)C)n3)CC2)n1 | -12% |
| Cc1nc(CN2CCC3(CCCN(Cc4ccncc4)C3)C2=O)cs1 (configuration not stated) | -11.1% |
| Cc1ccc(CN2CC[C@@H](NS(C)(=O)=O)[C@@H]2Cc2ccncc2)o1 | -10.7% |
| CN(CC(=O)N(C)C(c1ccc(Cl)cc1)c1cccnc1)C1CC1 (configuration not stated) | -5.57% |
| CCN(Cc1nc2c(cnn2C)c(=O)[nH]1)c1cccc(C)c1 | 4.24% |
| CC(NC(=O)c1cccs1)(C(N)=O)c1cccc(C(F)(F)F)c1 (configuration not stated) | -101% |
| COc1cc(Cc2nc3c([nH]2)CC(C)(C)CNC3=O)cc(OC)c1 | 8.47% |
| Cn1cc(CN2CCCC3(CCN(C(=O)c4cnccn4)C3)C2)cn1 (configuration not stated) | 11.1% |
| CC(=O)N1CCCN(CCCc2ccccc2)CC1 | -6.32% |
| O=C(NCc1ccc(F)cc1)NCC(O)(c1ccco1)C1CC1 (configuration not stated) | 6.32% |
| Cc1c[nH]c(C(=O)N2CCn3nc(C(=O)NC4CC4)cc3C2)n1 | 24.5% |
| CCn1c(CN(C)C)nnc1C1CCN(Cc2cccc(F)c2F)CC1 | -1.68% |
| CCC1CN(CC(=O)Nc2sccc2C#N)CCO1 (configuration not stated) | -8.24% |
| COc1cccc(CN(C)C(C)c2ccon2)c1OCCn1ccnc1 (configuration not stated) | -19.9% |
| CNC(=O)c1ccc2c(c1O)OC(C)(C)C2 | -4.08% |
| CCC(C)C(=O)NCc1ccc(-n2cncn2)nc1 (configuration not stated) | -6.68% |
| CC(=O)N1CCCC(c2ccc(C(=O)NC3CCCC3)cn2)C1 (configuration not stated) | -5.66% |
